Data from patent US8097620B2, “Diazaquinolones that inhibit prolyl hydroxylase activity” (Amgen Inc., priority 2007, dated 2012).

Target: HIF PHD2 (Homo sapiens, UniProt Q9GZT9)
Experiment: PHD2 inhibition assay (TR-FRET, VCB-Eu detection of hydroxylated P564-HIF1α peptide)
Assay type: biochemical
Details: 2 nM PHD2, 100 nM P564-HIF1α peptide, 0.25 μM 2-oxoglutarate, 100 μM FeCl2, 2 mM ascorbic acid, pH 6
Experimental: Inhibition of HIF PHD2 activity was quantified utilizing the TR-FRET technology. HIF PHD2 catalyzes a hydroxyl modification on the proline residue of the P564-HIF1α peptide substrate (Biotin-[…] (SEQ ID NO: 7)) resulting in recognition and binding of the europylated Von Hippel-Lindau protein (pVHL), elongin B and elongin C heterotrimeric (VCB-Eu) complex.
The PHD2 inhibition assay was executed by addition of freshly dissolved FeCl2 to 178.57 μM (100 μM final concentration) in PHD2 Reaction Buffer containing 30 mM MES, pH 6, 10 mM NaCl, 0.25% Brij-35, 0.01% BSA, and 1% DMSO. 28 μL of the iron solution and 2 μL of inhibitor compounds serially diluted in 100% DMSO (5% DMSO final) were added to black polypropylene 96-well microtiter plates. To that, 10 μL of 10 nM PHD2 (2 nM final) was added to all wells of the plate except for the 8 wells of column 12 (LO control), and allowed to incubate at room temperature on the shaker for one hour. Column 6 was the HI control containing PHD2 enzyme and 5% DMSO vehicle, but no inhibitor compound. To initiate the PHD2 enzymatic reaction, 10 μL of a solution containing 500 nM P564-HIF1α peptide (100 nM final), 10 mM ascorbic acid (2 mM final), and 1.25 μM 2-oxoglutarate (α-ketoglutarate; 0.25 μM final) in PHD2 Reaction Buffer was added to all wells of the plate and allowed to incubate on the shaker at room temperature for one hour.
The reaction was terminated by addition of 25 μL TR-FRET Buffer (50 mM TRIS-HCl, pH 9, 100 mM NaCl, 0.05% BSA, and 0.5% Tween-20) containing 150 mM succinate (product inhibitor; 50 mM final), 75 nM streptavidin-APC (25 nM final), and 7.5 nM VCB-Eu (2.5 nM final). The TR-FRET detection reagents were placed on a shaker for 1 hour to reach binding equilibrium before reading on the Discovery platform (PerkinElmer). Europium is excited at 315 nm and phosphoresces at 615 nm with a large Stoke's shift. APC, in turn, emits at 655 nm upon excitation at 615 nm. The TR-FRET signal is measured as the ratio of the APC 655 nm signal divided by the internal europium reference 615 nm emission signal.
The POC (percentage of control) was determined by comparing the signal from hydroxylated peptide substrate in the enzyme reaction containing inhibitor compound with that from PHD2 enzyme with DMSO vehicle alone (HI control), and no enzyme (LO control). POC was calculated using the formula: % control (POC)=(cpd−average LO)/(average HI−average LO)*100. Data (consisting of POC and inhibitor concentration in μM) was fitted to a 4-parameter equation (y=A+((B−A)/(1+((x/C)^D))), where A is the minimum y (POC) value, B is the maximum y (POC), C is the x (cpd concentration) at the point of inflection and D is the slope factor) using a Levenburg-Marquardt non-linear regression algorithm.

HIF PHD2, sequence (Q9GZT9 whole entry): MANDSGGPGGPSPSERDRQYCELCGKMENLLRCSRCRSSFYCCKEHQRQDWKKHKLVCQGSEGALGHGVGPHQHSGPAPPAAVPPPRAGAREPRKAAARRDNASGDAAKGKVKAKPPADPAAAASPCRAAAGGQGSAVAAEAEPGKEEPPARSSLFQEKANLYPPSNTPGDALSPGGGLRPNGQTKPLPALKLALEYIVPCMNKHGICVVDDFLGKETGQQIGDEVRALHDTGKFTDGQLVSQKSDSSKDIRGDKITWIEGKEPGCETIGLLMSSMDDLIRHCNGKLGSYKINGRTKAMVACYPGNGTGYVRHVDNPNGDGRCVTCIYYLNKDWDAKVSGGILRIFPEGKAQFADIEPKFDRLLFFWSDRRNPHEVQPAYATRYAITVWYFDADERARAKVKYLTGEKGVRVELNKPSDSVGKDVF

SMILES | IC50 [nM]
Cn1c(=O)c(C(=O)NCC(=O)O)c(O)c2cc(Cl)nnc21 [Example 1, 2-(3-chloro-5-hydroxy-8-methyl-7-oxo-7,8-dihydropyrido[2,3-c]pyridazine-6-carboxamido)acetic acid] | 24
Cn1c(=O)c(C(=O)NCC(=O)O)c(O)c2cc(-c3ccccc3)nnc21 [Example 2, 2-(5-hydroxy-8-methyl-7-oxo-3-phenyl-7,8-dihydropyrido[2,3-c]pyridazine-6-carboxamido)acetic acid] | 17
Cn1c(=O)c(C(=O)NCC(=O)O)c(O)c2cc(-c3cccs3)nnc21 [Example 3, 2-(5-hydroxy-8-methyl-7-oxo-3-(thiophen-2-yl)-7,8-dihydropyrido[2,3-c]pyridazine-6-carboxamido)acetic acid] | 22
Cn1c(=O)c(C(=O)NCC(=O)O)c(O)c2cc(C3=CCCC3)nnc21 [Example 4, 2-(3-cyclopentenyl-5-hydroxy-8-methyl-7-oxo-7,8-dihydropyrido[2,3-c]pyridazine-6-carboxamido)acetic acid] | 17
Cn1c(=O)c(C(=O)NCC(=O)O)c(O)c2cc(C3CCCC3)nnc21 [Example 5, 2-(3-cyclopentyl-5-hydroxy-8-methyl-7-oxo-7,8-dihydropyrido[2,3-c]pyridazine-6-carboxamido)acetic acid] | 8.8
Cn1c(=O)c(C(=O)NCC(=O)O)c(O)c2cc(C3=CCCCC3)nnc21 [Example 6, 2-(3-cyclohexenyl-5-hydroxy-8-methyl-7-oxo-7,8-dihydropyrido[2,3-c]pyridazine-6-carboxamido)acetic acid] | 16
CC(C)Oc1cccc(-c2cc3c(O)c(C(=O)NCC(=O)O)c(=O)n(C)c3nn2)c1 [Example 7, 2-(5-hydroxy-3-(3-isopropoxyphenyl)-8-methyl-7-oxo-7,8-dihydropyrido[2,3-c]pyridazine-6-carboxamido)acetic acid] | 26
CC(C)Oc1ccc(-c2cc3c(O)c(C(=O)NCC(=O)O)c(=O)n(C)c3nn2)cc1 [Example 8, 2-(5-hydroxy-3-(4-isopropoxyphenyl)-8-methyl-7-oxo-7,8-dihydropyrido[2,3-c]pyridazine-6-carboxamido)acetic acid] | 21
CC(C)Oc1ccccc1-c1cc2c(O)c(C(=O)NCC(=O)O)c(=O)n(C)c2nn1 [Example 9, 2-(5-hydroxy-3-(2-isopropoxyphenyl)-8-methyl-7-oxo-7,8-dihydropyrido[2,3-c]pyridazine-6-carboxamido)acetic acid] | 14
CSc1ncc2c(O)c(C(=O)NCC(=O)O)c(=O)n(C)c2n1 [Example 10, 2-(5-hydroxy-8-methyl-2-(methylthio)-7-oxo-7,8-dihydropyrido[2,3-d]pyrimidine-6-carboxamido)acetic acid] | 25
Cn1c(=O)c(C(=O)NCC(=O)O)c(O)c2cnc(N3CCCCC3)nc21 [Example 11, 2-(5-hydroxy-8-methyl-7-oxo-2-(piperidin-1-yl)-7,8-dihydropyrido[2,3-d]pyrimidine-6-carboxamido)acetic acid] | 16
COc1ncc2c(O)c(C(=O)NCC(=O)O)c(=O)n(C)c2n1 [Example 12, 2-(5-hydroxy-2-methoxy-8-methyl-7-oxo-7,8-dihydropyrido[2,3-d]pyrimidine-6-carboxamido)acetic acid] | 18
Cn1c(=O)c(C(=O)NCC(=O)O)c(O)c2cnc(N3CCOCC3)nc21 [Example 13, 2-(5-hydroxy-8-methyl-2-morpholino-7-oxo-7,8-dihydropyrido[2,3-d]pyrimidine-6-carboxamido)acetic acid] | 240
Cn1c(=O)c(C(=O)NCC(=O)O)c(O)c2cnc(C(F)(F)F)nc21 [Example 14, 2-(5-hydroxy-8-methyl-7-oxo-2-(trifluoromethyl)-7,8-dihydropyrido[2,3-d]pyrimidine-6-carboxamido)acetic acid] | 6.9
Cn1c(=O)c(C(=O)NCC(=O)O)c(O)c2cnc(N3CCCC3)nc21 [Example 15, 2-(5-hydroxy-8-methyl-7-oxo-2-(pyrrolidin-1-yl)-7,8-dihydropyrido[2,3-d]pyrimidine-6-carboxamido)acetic acid] | 7.35
CC1CCCCN1c1ncc2c(O)c(C(=O)NCC(=O)O)c(=O)n(C)c2n1 (stereo not shown) [Example 16, 2-(5-hydroxy-8-methyl-2-(2-methylpiperidin-1-yl)-7-oxo-7,8-dihydropyrido[2,3-d]pyrimidine-6-carboxamido)acetic acid] | 52.5
Cn1c(=O)c(C(=O)NCC(=O)O)c(O)c2ncc(-c3ccccc3)nc21 [Example 18, 2-(8-hydroxy-5-methyl-6-oxo-3-phenyl-5,6-dihydropyrido[3,2-b]pyrazine-7-carboxamido)acetic acid] | 8.8
CCC1CCCCN1c1ncc2c(O)c(C(=O)NCC(=O)O)c(=O)n(C)c2n1 (stereo not shown) [Example 19, 2-(2-(2-ethylpiperidin-1-yl)-5-hydroxy-8-methyl-7-oxo-7,8-dihydropyrido[2,3-d]pyrimidine-6-carboxamido)acetic acid] | 71
CCC1CCC(C)N(c2ncc3c(O)c(C(=O)NCC(=O)O)c(=O)n(C)c3n2)C1 (stereo not shown) [Example 20, 2-(2-(5-ethyl-2-methylpiperidin-1-yl)-5-hydroxy-8-methyl-7-oxo-7,8-dihydropyrido[2,3-d]pyrimidine-6-carboxamido)acetic acid] | 175
Cn1c(=O)c(C(=O)NCC(=O)O)c(O)c2cnc(N3CCCC4CCCCC43)nc21 (stereo not shown) [Example 21, 2-(5-hydroxy-8-methyl-2-(octahydroquinolin-1(2H)-yl)-7-oxo-7,8-dihydropyrido[2,3-d]pyrimidine-6-carboxamido)acetic acid] | 152
Cn1c(=O)c(C(=O)NCC(=O)O)c(O)c2cnc(-c3cccc(F)c3)nc21 [Example 22, 2-(2-(3-fluorophenyl)-5-hydroxy-8-methyl-7-oxo-7,8-dihydropyrido[2,3-d]pyrimidine-6-carboxamido)acetic acid] | 2.9
Cn1c(=O)c(C(=O)NCC(=O)O)c(O)c2cnc(C#CC3CC3)nc21 [Example 23, 2-(2-(2-cyclopropylethynyl)-5-hydroxy-8-methyl-7-oxo-7,8-dihydropyrido[2,3-d]pyrimidine-6-carboxamido)acetic acid] | 12
Cn1c(=O)c(C(=O)NCC(=O)O)c(O)c2cnc(C3CC3)nc21 [Example 24, 2-(2-cyclopropyl-5-hydroxy-8-methyl-7-oxo-7,8-dihydropyrido[2,3-d]pyrimidine-6-carboxamido)acetic acid] | 3.9
Cn1c(=O)c(C(=O)NCC(=O)O)c(O)c2cnc(-c3ccccc3)nc21 [Example 25, 2-(5-hydroxy-8-methyl-7-oxo-2-phenyl-7,8-dihydropyrido[2,3-d]pyrimidine-6-carboxamido)acetic acid] | 4.3
Cn1c(=O)c(C(=O)NCC(=O)O)c(O)c2cnc(-c3ccccc3F)nc21 [Example 26, 2-(2-(2-fluorophenyl)-5-hydroxy-8-methyl-7-oxo-7,8-dihydropyrido[2,3-d]pyrimidine-6-carboxamido)acetic acid] | 1.5
Cn1c(=O)c(C(=O)NCC(=O)O)c(O)c2cnc(-c3ccc(F)cc3)nc21 [Example 27, 2-(2-(4-fluorophenyl)-5-hydroxy-8-methyl-7-oxo-7,8-dihydropyrido[2,3-d]pyrimidine-6-carboxamido)acetic acid] | 2.3
Cn1c(=O)c(C(=O)NCC(=O)O)c(O)c2cnc(-c3ccccc3N3CCOCC3)nc21 [Example 28, 2-(5-hydroxy-8-methyl-2-(2-morpholinophenyl)-7-oxo-7,8-dihydropyrido[2,3-d]pyrimidine-6-carboxamido)acetic acid] | 2.9
Cn1c(=O)c(C(=O)NCC(=O)O)c(O)c2cnc(-c3ccc(N4CCOCC4)cc3)nc21 [Example 29, 2-(5-hydroxy-8-methyl-2-(4-morpholinophenyl)-7-oxo-7,8-dihydropyrido[2,3-d]pyrimidine-6-carboxamido)acetic acid] | 3.7
